Reference: patent publication US20230266302A1, “SYNTHESIS AND USE OF N-BENZYL SULFONAMIDES” (THE UNIVERSITY OF TULSA, priority 2020, published 2023)

The compounds below were run on BxPC3 (pancreatic cancer) (assay: ATP level assay (CellTiter-Glo), percent of control). Conditions: Homo sapiens, BXPC-3, 2 h; compound alone, 100 uM, two hour incubation, control DMSO; read-out: POC (percent of control) BxPC3.
Format: cell-based

| SMILES | activity at 100 µM [%] |
| --- | --- |
| Cn1cc(CNS(=O)(=O)c2ccc(Cl)cc2)cn1 [Compound 11, 4-chloro-N-[(1-methyl-1H-pyrazol-4-yl)methyl]benzenesulfonamide] | 99.2 |

Same assay, conditions: compound 100 uM + 2DG (about 10-20 mM), two hour incubation

| SMILES | POC (percent of control) BxPC3 |
| --- | --- |
| Cn1cc(CNS(=O)(=O)c2ccc(Cl)cc2)cn1 [Compound 11, 4-chloro-N-[(1-methyl-1H-pyrazol-4-yl)methyl]benzenesulfonamide] | 83.8% of control |

Same assay, conditions: compound 100 uM + rotenone (approximately 1.25 μM), two hour incubation

| SMILES | POC (percent of control) BxPC3 |
| --- | --- |
| Cn1cc(CNS(=O)(=O)c2ccc(Cl)cc2)cn1 [Compound 11, 4-chloro-N-[(1-methyl-1H-pyrazol-4-yl)methyl]benzenesulfonamide] | 78% of control |

The compounds below were run on H293 (kidney cancer) in the same assay as above. Conditions: 2 h; compound alone, 100 uM, two hour incubation, control DMSO; read-out: POC (percent of control) H293.
Format: cell-based

| SMILES | activity at 100 µM [%] |
| --- | --- |
| Cn1cc(CNS(=O)(=O)c2ccc(Cl)cc2)cn1 [Compound 11, 4-chloro-N-[(1-methyl-1H-pyrazol-4-yl)methyl]benzenesulfonamide] | 92.8 |

Same assay, conditions: compound 100 uM + 2DG (about 10-20 mM), two hour incubation

| SMILES | POC (percent of control) H293 |
| --- | --- |
| Cn1cc(CNS(=O)(=O)c2ccc(Cl)cc2)cn1 [Compound 11, 4-chloro-N-[(1-methyl-1H-pyrazol-4-yl)methyl]benzenesulfonamide] | 87.4% of control |

Same assay, conditions: compound 100 uM + rotenone (approximately 1.25 μM), two hour incubation

| SMILES | POC (percent of control) H293 |
| --- | --- |
| Cn1cc(CNS(=O)(=O)c2ccc(Cl)cc2)cn1 [Compound 11, 4-chloro-N-[(1-methyl-1H-pyrazol-4-yl)methyl]benzenesulfonamide] | 88.3% of control |

What follows are compounds tested on HDF (normal cells) in the same assay as above. Conditions: 2 h; compound alone, 100 uM, two hour incubation, control DMSO; read-out: POC (percent of control) HDF.
Format: cell-based

| SMILES | activity at 100 µM [%] |
| --- | --- |
| Cn1cc(CNS(=O)(=O)c2ccc(Cl)cc2)cn1 [Compound 11, 4-chloro-N-[(1-methyl-1H-pyrazol-4-yl)methyl]benzenesulfonamide] | 77.4 |

Same assay, conditions: compound 100 uM + 2DG (about 10-20 mM), two hour incubation

| SMILES | POC (percent of control) HDF |
| --- | --- |
| Cn1cc(CNS(=O)(=O)c2ccc(Cl)cc2)cn1 [Compound 11, 4-chloro-N-[(1-methyl-1H-pyrazol-4-yl)methyl]benzenesulfonamide] | 101.3% of control |

Same assay, conditions: compound 100 uM + rotenone (approximately 1.25 μM), two hour incubation

| SMILES | POC (percent of control) HDF |
| --- | --- |
| Cn1cc(CNS(=O)(=O)c2ccc(Cl)cc2)cn1 [Compound 11, 4-chloro-N-[(1-methyl-1H-pyrazol-4-yl)methyl]benzenesulfonamide] | 89.8% of control |

What follows are compounds tested on HeLa (cervical cancer) in the same assay as above. Conditions: Homo sapiens, HeLa, 2 h; compound alone, 100 uM, two hour incubation, control DMSO; read-out: POC (percent of control) HeLa.
Format: cell-based

| SMILES | activity at 100 µM [%] |
| --- | --- |
| Cn1cc(CNS(=O)(=O)c2ccc(Cl)cc2)cn1 [Compound 11, 4-chloro-N-[(1-methyl-1H-pyrazol-4-yl)methyl]benzenesulfonamide] | 103 |

Same assay, conditions: compound 100 uM + 2DG (about 10-20 mM), two hour incubation

| SMILES | POC (percent of control) HeLa |
| --- | --- |
| Cn1cc(CNS(=O)(=O)c2ccc(Cl)cc2)cn1 [Compound 11, 4-chloro-N-[(1-methyl-1H-pyrazol-4-yl)methyl]benzenesulfonamide] | 117.6% of control |

Same assay, conditions: compound 100 uM + rotenone (approximately 1.25 μM), two hour incubation

| SMILES | POC (percent of control) HeLa |
| --- | --- |
| Cn1cc(CNS(=O)(=O)c2ccc(Cl)cc2)cn1 [Compound 11, 4-chloro-N-[(1-methyl-1H-pyrazol-4-yl)methyl]benzenesulfonamide] | 96.4% of control |

The compounds below were run on MCF10A (non-cancerous breast) in the same assay as above. Conditions: Homo sapiens, MCF-10A, 2 h; compound alone, 100 uM, two hour incubation, control DMSO; read-out: POC (percent of control) MCF10A.
Format: cell-based

| SMILES | activity at 100 µM [%] |
| --- | --- |
| Cn1cc(CNS(=O)(=O)c2ccc(Cl)cc2)cn1 [Compound 11, 4-chloro-N-[(1-methyl-1H-pyrazol-4-yl)methyl]benzenesulfonamide] | 95.4 |

Same assay, conditions: compound 100 uM + 2DG (about 10-20 mM), two hour incubation

| SMILES | POC (percent of control) MCF10A |
| --- | --- |
| Cn1cc(CNS(=O)(=O)c2ccc(Cl)cc2)cn1 [Compound 11, 4-chloro-N-[(1-methyl-1H-pyrazol-4-yl)methyl]benzenesulfonamide] | 95.8% of control |

Same assay, conditions: compound 100 uM + rotenone (approximately 1.25 μM), two hour incubation

| SMILES | POC (percent of control) MCF10A |
| --- | --- |
| Cn1cc(CNS(=O)(=O)c2ccc(Cl)cc2)cn1 [Compound 11, 4-chloro-N-[(1-methyl-1H-pyrazol-4-yl)methyl]benzenesulfonamide] | 93.7% of control |

Each compound was assayed on MCF7 (breast cancer) in the same assay as above. Conditions: Homo sapiens, MCF7, 2 h; compound alone, 100 uM, two hour incubation, control DMSO; read-out: POC (percent of control) MCF7.
Format: cell-based

| SMILES | activity at 100 µM [%] |
| --- | --- |
| Cn1cc(CNS(=O)(=O)c2ccc(Cl)cc2)cn1 [Compound 11, 4-chloro-N-[(1-methyl-1H-pyrazol-4-yl)methyl]benzenesulfonamide] | 118 |

Same assay, conditions: compound 100 uM + 2DG (about 10-20 mM), two hour incubation

| SMILES | POC (percent of control) MCF7 |
| --- | --- |
| Cn1cc(CNS(=O)(=O)c2ccc(Cl)cc2)cn1 [Compound 11, 4-chloro-N-[(1-methyl-1H-pyrazol-4-yl)methyl]benzenesulfonamide] | 98.4% of control |

Same assay, conditions: compound 100 uM + rotenone (approximately 1.25 μM), two hour incubation

| SMILES | POC (percent of control) MCF7 |
| --- | --- |
| Cn1cc(CNS(=O)(=O)c2ccc(Cl)cc2)cn1 [Compound 11, 4-chloro-N-[(1-methyl-1H-pyrazol-4-yl)methyl]benzenesulfonamide] | 94.6% of control |

What follows are compounds tested on MDA-MB (breast cancer) in the same assay as above. Conditions: 2 h; compound alone, 100 uM, two hour incubation, control DMSO; read-out: POC (percent of control) MDA-MB.
Format: cell-based

| SMILES | activity at 100 µM [%] |
| --- | --- |
| Cn1cc(CNS(=O)(=O)c2ccc(Cl)cc2)cn1 [Compound 11, 4-chloro-N-[(1-methyl-1H-pyrazol-4-yl)methyl]benzenesulfonamide] | 95.3 |

Same assay, conditions: compound 100 uM + 2DG (about 10-20 mM), two hour incubation

| SMILES | POC (percent of control) MDA-MB |
| --- | --- |
| Cn1cc(CNS(=O)(=O)c2ccc(Cl)cc2)cn1 [Compound 11, 4-chloro-N-[(1-methyl-1H-pyrazol-4-yl)methyl]benzenesulfonamide] | 82.4% of control |

Same assay, conditions: compound 100 uM + rotenone (approximately 1.25 μM), two hour incubation

| SMILES | POC (percent of control) MDA-MB |
| --- | --- |
| Cn1cc(CNS(=O)(=O)c2ccc(Cl)cc2)cn1 [Compound 11, 4-chloro-N-[(1-methyl-1H-pyrazol-4-yl)methyl]benzenesulfonamide] | 97.9% of control |

Each compound was assayed on NCI-H196 (lung cancer) in the same assay as above. Conditions: NCI-H196, 2 h; compound alone, 100 uM, two hour incubation, control DMSO; read-out: POC (percent of control) NCI-H196.
Format: cell-based

| SMILES | activity at 100 µM [%] |
| --- | --- |
| Cn1cc(CNS(=O)(=O)c2ccc(Cl)cc2)cn1 [Compound 11, 4-chloro-N-[(1-methyl-1H-pyrazol-4-yl)methyl]benzenesulfonamide] | 95.2 |

Same assay, conditions: compound 100 uM + 2DG (about 10-20 mM), two hour incubation

| SMILES | POC (percent of control) NCI-H196 |
| --- | --- |
| Cn1cc(CNS(=O)(=O)c2ccc(Cl)cc2)cn1 [Compound 11, 4-chloro-N-[(1-methyl-1H-pyrazol-4-yl)methyl]benzenesulfonamide] | 114.7% of control |

Same assay, conditions: compound 100 uM + rotenone (approximately 1.25 μM), two hour incubation

| SMILES | POC (percent of control) NCI-H196 |
| --- | --- |
| Cn1cc(CNS(=O)(=O)c2ccc(Cl)cc2)cn1 [Compound 11, 4-chloro-N-[(1-methyl-1H-pyrazol-4-yl)methyl]benzenesulfonamide] | 88.9% of control |

Each compound was assayed on PC3 (prostate cancer) in the same assay as above. Conditions: 2 h; compound alone, 100 uM, two hour incubation, control DMSO; read-out: POC (percent of control) PC3.
Format: cell-based

| SMILES | activity at 100 µM [%] |
| --- | --- |
| Cn1cc(CNS(=O)(=O)c2ccc(Cl)cc2)cn1 [Compound 11, 4-chloro-N-[(1-methyl-1H-pyrazol-4-yl)methyl]benzenesulfonamide] | 113 |

Same assay, conditions: compound 100 uM + 2DG (about 10-20 mM), two hour incubation

| SMILES | POC (percent of control) PC3 |
| --- | --- |
| Cn1cc(CNS(=O)(=O)c2ccc(Cl)cc2)cn1 [Compound 11, 4-chloro-N-[(1-methyl-1H-pyrazol-4-yl)methyl]benzenesulfonamide] | 94.6% of control |

Same assay, conditions: compound 100 uM + rotenone (approximately 1.25 μM), two hour incubation

| SMILES | POC (percent of control) PC3 |
| --- | --- |
| Cn1cc(CNS(=O)(=O)c2ccc(Cl)cc2)cn1 [Compound 11, 4-chloro-N-[(1-methyl-1H-pyrazol-4-yl)methyl]benzenesulfonamide] | 96.1% of control |

The compounds below were run on SkBr3 (breast cancer) in the same assay as above. Conditions: Homo sapiens, SK-BR-3, 2 h; compound alone, 100 uM, two hour incubation, control DMSO; read-out: POC (percent of control) SkBr3.
Format: cell-based

| SMILES | activity at 100 µM [%] |
| --- | --- |
| Cn1cc(CNS(=O)(=O)c2ccc(Cl)cc2)cn1 [Compound 11, 4-chloro-N-[(1-methyl-1H-pyrazol-4-yl)methyl]benzenesulfonamide] | 101 |

Same assay, conditions: compound 100 uM + 2DG (about 10-20 mM), two hour incubation

| SMILES | POC (percent of control) SkBr3 |
| --- | --- |
| Cn1cc(CNS(=O)(=O)c2ccc(Cl)cc2)cn1 [Compound 11, 4-chloro-N-[(1-methyl-1H-pyrazol-4-yl)methyl]benzenesulfonamide] | 99.7% of control |

Same assay, conditions: compound 100 uM + rotenone (approximately 1.25 μM), two hour incubation

| SMILES | POC (percent of control) SkBr3 |
| --- | --- |
| Cn1cc(CNS(=O)(=O)c2ccc(Cl)cc2)cn1 [Compound 11, 4-chloro-N-[(1-methyl-1H-pyrazol-4-yl)methyl]benzenesulfonamide] | 95.3% of control |

Each compound was assayed on T47D (breast cancer) in the same assay as above. Conditions: Homo sapiens, T47D, 2 h; compound alone, 100 uM, two hour incubation, control DMSO; read-out: POC (percent of control) T47D.
Format: cell-based

| SMILES | activity at 100 µM [%] |
| --- | --- |
| Cn1cc(CNS(=O)(=O)c2ccc(Cl)cc2)cn1 [Compound 11, 4-chloro-N-[(1-methyl-1H-pyrazol-4-yl)methyl]benzenesulfonamide] | 59.3 |

Same assay, conditions: compound 100 uM + 2DG (about 10-20 mM), two hour incubation

| SMILES | POC (percent of control) T47D |
| --- | --- |
| Cn1cc(CNS(=O)(=O)c2ccc(Cl)cc2)cn1 [Compound 11, 4-chloro-N-[(1-methyl-1H-pyrazol-4-yl)methyl]benzenesulfonamide] | 90.4% of control |

Same assay, conditions: compound 100 uM + rotenone (approximately 1.25 μM), two hour incubation

| SMILES | POC (percent of control) T47D |
| --- | --- |
| Cn1cc(CNS(=O)(=O)c2ccc(Cl)cc2)cn1 [Compound 11, 4-chloro-N-[(1-methyl-1H-pyrazol-4-yl)methyl]benzenesulfonamide] | 99.6% of control |
